In PubChem BioAssay (NCI):
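1) Cells in 96-well plates. 2) Compound, 48 h, 5 concentrations. 3) Linear interpolation between surrounding doses. 4) Unreached endpoint = highest concentration. TGI: total growth inhibition.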

Columns and labels:
Test in all cases: inhibition of tumour cell growth, NCI panel, 48 h
[1] = system: OVCAR-8 ovarian
[2] = system: SK-OV-3 ovarian
[3] = system: KM12 colon
[4] = system: HCT-116 colon
[5] = system: MOLT-4 leukemia
[6] = system: T-47D breast
[7] = system: NCI-H226 lung
[8] = system: UACC-62 melanoma
[9] = system: U251 CNS
[10] = system: SF-539 CNS
[11] = system: COLO 205 colon
[12] = system: A549 NSCLC
[13] = system: CCRF-CEM leukemia
[14] = system: SNB-75 CNS
[15] = system: HL-60(TB) leukemia
[16] = system: UACC-257 melanoma
[17] = system: HOP-92 NSCLC
[18] = system: IGROV1 ovarian
[19] = system: LOX IMVI melanoma

SMILES	TGI [1] [µM]	TGI [2] [µM]	TGI [3] [µM]	TGI [4] [µM]	TGI [5] [µM]	TGI [6] [µM]	TGI [7] [µM]	TGI [8] [µM]	TGI [9] [µM]	TGI [10] [µM]	TGI [11] [µM]	TGI [12] [µM]	TGI [13] [µM]	TGI [14] [µM]	TGI [15] [µM]	TGI [16] [µM]	TGI [17] [µM]	TGI [18] [µM]	TGI [19] [µM]
O=C1NC(=O)C(Cc2ccccc2)(c2cccnc2)N1 (stereo not drawn)	> 100	> 100	> 100	> 100	> 100	> 100	> 100	> 100	> 100	> 100	> 100	> 100	> 100	> 100	> 100	> 100	> 100	> 100	> 100
N#CC(C#N)N=Cc1ccncc1	> 100	> 100	> 100	> 100	> 100	> 100	> 100	> 100	> 100	> 100	> 100	> 100	> 100	> 100	> 100	> 100	> 100	> 100	> 100
CCCCCCCCCCCCCCCCCCNc1ccn(C2OC(COP(=O)(O)OC3CC(n4cc(F)c(=O)[nH]c4=O)OC3COP(=O)(O)OCC3OC(n4ccc(N)nc4=O)C(O)C3O)C(O)C2O)c(=O)n1 (stereo not drawn)	> 51.8	> 58.8	41.5	> 60.7	29.2	> 100	> 82.2	> 44.4	> 50.4	2.17	> 48.7	> 51	3.37	> 100	11.4	> 57.3	> 100	54.9	20
CCOC(=O)C(SCCO)C(C(=O)OCC)n1cnc2c(N)ncnc21 (stereo not drawn)	31.2	> 100	35.2	22.2	20	30.8	38	24.7	20.4	35.5	20	> 100	6.39	24.7	5.46	> 80.2	13.4	36.5	15.1
CCOC(=O)C(C(=O)OCC)=C1NC2(c3ccccc3Nc3ccc(C)cc32)C(C#N)S1 (stereo not drawn)	35	98.9	41.3	22	5.76	34.6	25.3	26.8	17.9	12	14.6	21.8	> 100	64.3	61.2	45.6	14.2	27.2	24.4
O=c1[nH]c(C23CC4CC(CC(C4)C2)C3)cc2c1c(=O)oc1ccccc12	15	11	> 96	12.4	> 100	44.6	5.75	> 49.8	7.55	17.4	46.9	9.71	42.7	9.52	> 100	> 76.2	6.48	13	11.6
COc1cc(S(=O)(=O)Nc2nc(-c3ccc(N4C(=O)CSC4c4cccs4)cc3)cs2)ccc1Cl (stereo not drawn)	> 100	> 100	> 100	> 100	> 100	> 100	> 100	> 100	> 100	> 100	> 100	> 100	> 100	> 100	> 100	> 100	> 100	> 100	48.2
